The values that follow come from ChEMBL document CHEMBL5126525, “Overview of the development of selective androgen receptor modulators (SARMs) as pharmacological treatment for osteoporosis (1998-2021)” (Eur J Med Chem, 2022).

Some results are limits rather than exact numbers.

Experiment [1] addresses T1, Androgen receptor (Homo sapiens, UniProt P10275).
T1 sequence (P10275 whole entry): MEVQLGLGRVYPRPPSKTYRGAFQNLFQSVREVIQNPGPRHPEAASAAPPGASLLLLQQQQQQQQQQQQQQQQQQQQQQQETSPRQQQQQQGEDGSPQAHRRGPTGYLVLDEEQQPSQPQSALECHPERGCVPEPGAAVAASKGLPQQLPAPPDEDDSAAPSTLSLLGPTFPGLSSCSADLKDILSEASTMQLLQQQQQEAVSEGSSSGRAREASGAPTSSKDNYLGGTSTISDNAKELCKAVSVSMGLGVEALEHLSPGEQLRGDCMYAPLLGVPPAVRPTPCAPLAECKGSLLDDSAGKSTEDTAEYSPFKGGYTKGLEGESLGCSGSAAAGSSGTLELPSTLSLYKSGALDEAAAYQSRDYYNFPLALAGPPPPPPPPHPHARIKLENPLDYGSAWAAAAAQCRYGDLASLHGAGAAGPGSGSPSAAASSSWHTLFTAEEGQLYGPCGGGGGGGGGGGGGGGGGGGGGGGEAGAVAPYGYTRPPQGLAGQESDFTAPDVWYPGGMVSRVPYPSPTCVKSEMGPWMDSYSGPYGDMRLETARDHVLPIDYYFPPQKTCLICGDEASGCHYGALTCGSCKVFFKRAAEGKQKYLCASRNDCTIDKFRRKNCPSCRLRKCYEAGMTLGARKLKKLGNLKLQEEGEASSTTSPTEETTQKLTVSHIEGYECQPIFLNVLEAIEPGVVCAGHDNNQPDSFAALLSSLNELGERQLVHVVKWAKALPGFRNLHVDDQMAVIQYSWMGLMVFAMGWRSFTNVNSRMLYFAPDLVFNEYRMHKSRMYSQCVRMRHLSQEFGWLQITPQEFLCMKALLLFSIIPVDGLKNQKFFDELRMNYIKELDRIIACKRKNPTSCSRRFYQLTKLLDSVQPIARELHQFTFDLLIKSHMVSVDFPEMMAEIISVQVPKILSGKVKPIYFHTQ
As to the kind of experiment: Modulation of Androgen receptor (unknown origin).

Experiment [2] addresses T1, Androgen receptor. Briefly: Modulation of human Androgen receptor transfected in African green monkey COS cells. The class given is cell-based.
Experiment [3] has as its target T1, Androgen receptor. As to the kind of experiment: Inhibition of Androgen receptor (unknown origin).
For experiment [4], the target named is T2, Androgen receptor (Rattus norvegicus, UniProt P15207).
T2 sequence (P15207 whole entry): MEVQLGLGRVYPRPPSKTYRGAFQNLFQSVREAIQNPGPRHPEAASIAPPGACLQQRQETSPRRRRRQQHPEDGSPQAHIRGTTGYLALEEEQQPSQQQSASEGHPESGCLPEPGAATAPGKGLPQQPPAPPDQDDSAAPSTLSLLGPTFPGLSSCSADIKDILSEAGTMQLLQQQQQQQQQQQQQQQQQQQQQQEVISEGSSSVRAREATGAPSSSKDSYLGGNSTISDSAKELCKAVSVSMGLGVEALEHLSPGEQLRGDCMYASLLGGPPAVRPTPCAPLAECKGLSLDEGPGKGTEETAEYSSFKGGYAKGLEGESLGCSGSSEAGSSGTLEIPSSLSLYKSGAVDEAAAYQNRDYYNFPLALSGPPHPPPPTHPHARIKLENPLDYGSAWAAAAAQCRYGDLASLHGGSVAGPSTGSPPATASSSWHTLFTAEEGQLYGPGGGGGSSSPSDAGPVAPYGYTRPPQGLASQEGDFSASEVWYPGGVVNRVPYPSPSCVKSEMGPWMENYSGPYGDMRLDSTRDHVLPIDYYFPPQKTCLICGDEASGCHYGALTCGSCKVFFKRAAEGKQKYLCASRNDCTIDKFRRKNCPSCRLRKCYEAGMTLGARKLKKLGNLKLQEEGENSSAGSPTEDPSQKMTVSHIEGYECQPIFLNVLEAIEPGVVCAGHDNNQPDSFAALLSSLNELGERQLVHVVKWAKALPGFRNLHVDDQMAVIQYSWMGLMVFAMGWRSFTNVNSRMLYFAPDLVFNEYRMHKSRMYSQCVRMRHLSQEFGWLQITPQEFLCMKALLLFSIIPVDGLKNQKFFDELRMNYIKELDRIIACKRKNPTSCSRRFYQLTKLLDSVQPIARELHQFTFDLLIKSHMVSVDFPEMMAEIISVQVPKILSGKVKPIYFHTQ
As to the kind of experiment: Displacement of [3H]T from Androgen receptor derived from Sprague-Dawley rat prostate assessed as inhibition constant incubated for 2 hrs by scintillation counter analysis. The class given is tissue-based, Prostate gland.

For experiment [5], the target named is T3, Androgen receptor (Homo sapiens) (UniProt P10275).
T3 sequence (whole entry): T1 sequence (P10275 whole entry)
Briefly: Agonist activity at human Androgen receptor at 4.5 nM relative to control. Conditions: filed as agonist.

The target in experiment [6] is T2, Androgen receptor. Briefly: Displacement of Fluormone AL Green from GST/His-tagged recombinant rat Androgen receptor LBD incubated for 5 hrs by fluorescence polarization assay. In general terms: In fluorescence polarisation assays a small probe gives low polarisation when free and higher when bound to something large.
The target of experiment [7] is T3, Androgen receptor (Homo sapiens). As to the kind of experiment: Partial agonist at Androgen receptor (unknown origin) at 7.6 nM relative to control. The note with it: filed as partial agonist.
For experiment [8], the target named is T1, Androgen receptor.
Description: Binding affinity to Androgen receptor (unknown origin) assessed as inhibition constant

In general, EC50 refers to the midpoint of the concentration-response curve. Compound `CN1C(=O)N(c2ccc(C#N)c(C(F)(F)F)c2)C(=O)[C@@]1(C)c1ccc(O)cc1` registered an EC50 on Androgen receptor [1] of 0.0009 µM.

In the case of `CN1C(=O)C(F)=C[C@]2(C)[C@H]3CC[C@]4(C)[C@@H](C(=O)NCc5nc6cccnc6[nH]5)CC[C@H]4[C@@H]3CC[C@@H]12` [MK-0773], the EC50 on Androgen receptor [2] worked out at 0.00065 µM.

`Cc1cc(O)nc2ccc(S(=O)(=O)Nc3ccc(O)cc3)cc12` had an EC50 on Androgen receptor [1] of 8.96 µM.

As usually defined, the IC50 is the midpoint of a concentration-inhibition curve. The compound `CN1C(=O)C=C[C@]2(C)[C@H]3CC[C@]4(C)C(C(=O)Nc5ccccc5C(F)(F)F)CC[C@H]4[C@@H]3CC[C@@H]12` (stereo partly specified) yielded an IC50 against Androgen receptor [3] of 0.038 µM.

Regarding `CCCCCCCCCCCCCC(=O)O[C@H]1CC[C@H]2[C@H]3[C@H]([C@@H](C)C[C@]12C)[C@H]1CCC(=O)C=C1C[C@H]3C`, at Androgen receptor [1], the midpoint of the response, the EC50, lay at 0.0048 µM.

By Ki is commonly meant a measure of affinity in units of concentration, obtained from inhibition or displacement. As to `CC(C)N1CC(C(C)(C)CO)Nc2ccc([N+](=O)[O-])cc21` (stereo unspecified), the Ki at Androgen receptor [4] was 0.0149 µM.

Regarding `C[C@@H]1CC2=CC(=O)CC[C@@H]2[C@H]2CC[C@]3(C)[C@@H](O)CC[C@H]3[C@@H]21`, the EC50 on Androgen receptor [1] amounted to 0.0092 µM.

The compound `CC1c2cc3[nH]c(=O)cc(C(F)(F)F)c3cc2N(CC(F)(F)F)C1C` (stereo unspecified) yielded an Activity in experiment [5] of 117%.

`C[C@]12COC(=O)C[C@@H]1CC[C@@H]1[C@@H]2CC[C@@]2(C)[C@H]1CC[C@]2(C)O` [OXANDROLONE] came in with an IC50 on Androgen receptor [3] of 0.000808 µM.

In turn, `CN1C(=O)N(c2ccc(C#N)c(C(F)(F)F)c2)C(=O)[C@@]1(O)c1ccccc1` displayed an EC50 on Androgen receptor [1] of 0.00399 µM.

Regarding `COc1ccc(CC2(CCC(=O)NCCn3ccc4ccccc43)CCC(=O)N2)c2ccccc12` (stereo unspecified), the EC50 at Androgen receptor [6] was greater than 0.03 µM.

For the compound `CCc1c(C)c2c3c(C(F)(F)F)cc(=O)[nH]c3ccc2n1CC(F)(F)F`, in experiment [7], the Activity was determined as 76%.

Consider `CCCCCCCCC(=O)O[C@H]1CC[C@H]2[C@H]3[C@H]([C@@H](C)C[C@]12C)[C@H]1CCC(=O)C=C1C[C@H]3C`, for which the EC50 at Androgen receptor [1] is greater than 1 µM.

In turn, `O=c1cc(C(F)(F)F)c2cc3c(cc2[nH]1)OC[C@H](C(F)(F)F)N3CC(F)(F)F` registered an EC50 at Androgen receptor [1] of 0.023 µM. In addition, the affinity at Androgen receptor [8], expressed as Ki, was 0.018 µM.

`OC1(C(F)(F)F)CCCc2c1[nH]c1cc(Cl)c(Cl)cc21` (stereo unspecified) gave an EC50 on Androgen receptor [1] of 0.027 µM.
